Consider 46 compounds from patent US8765944B2, “Compounds for the treatment of hepatitis C” (priority 2010, dated 2014).

In the first test the test system is HCV pseudoparticles. Briefly: HCV pseudoparticle infection assay (luciferase reporter, Huh7 cells). The test is classed as cell-based, HCV (genotype 1b E1 and E2 envelope). The note with it: Hepatitis C virus, genotype 1b, Huh-7, 48 h, HCV pseudoparticles (genotype 1b), luciferase activity 2 days after infection. In general terms: A reporter such as luciferase makes a cellular process visible.
The term EC50 denotes the midpoint of the concentration-response curve. A low value points to a more potent agent. The compound `O=C(CCCNC(=O)c1ccc(Nc2nc(NC3(c4ccc(Cl)cc4)CC3)nc(OCC(F)(F)F)n2)cc1)NCCC(=O)NS(=O)(=O)C1CCC1` [Example 2063] returned an EC50 of 37.9 nM. That is a double-digit nanomolar value. The same measure, in the same setting: the figure for `O=C(Nc1cccnc1)OCC1(S(=O)(=O)NC(=O)c2ccc(Nc3nc(NC4(c5ccc(Cl)cc5)CC4)nc(OCC(F)(F)F)n3)cc2)CC1` [Example 1028] is 60 nM; for `C=CS(=O)(=O)NC(=O)CNC(=O)c1ccc(Nc2nc(NC3(c4ccc(Cl)cc4)CC3)nc(OCC(F)(F)F)n2)cc1` [Example 2010] it is 67 nM.

`CN(C)S(=O)(=O)NC(=O)c1ccc(Nc2nc(NC3(c4ccc(Cl)cc4)CC3)nc(OCC(F)(F)F)n2)cc1` [Example 1006]: a half-maximal response (EC50) required 39 nM. With `Cc1ccccc1S(=O)(=O)N1CCN(c2nc(Nc3ccc(C(=O)NS(=O)(=O)C4(CN(C)C)CC4)cc3)nc(OCC(F)(F)F)n2)CC1` [Example 8034], the EC50 was 23000 nM.

In turn, `CCC1(S(=O)(=O)NC(=O)c2ccc(Nc3nc(NC4(c5ccc(Cl)cc5)CC4)nc(OCC(F)(F)F)n3)cc2)CC1` [Example 1008] returned an EC50 of 81 nM. Turning to `CN(C)CC1(S(=O)(=O)NC(=O)c2ccc(Nc3nc(OCC(F)(F)F)nc(N4CCN(C(=O)OC(C)(C)C)CC4)n3)cc2)CC1` [Example 8028], the EC50 amounted to 17600 nM.

The same test, now with this note: Hepatitis C virus, genotype 1b, Huh-7, 48 h, HCV pseudoparticles (genotype 1b), luciferase activity 2 days after infection, class.
`O=C(CCCNC(=O)c1ccc(Nc2nc(NC3(c4ccc(Cl)cc4)CC3)nc(OCC(F)(F)F)n2)cc1)NC1(C(=O)NS(=O)(=O)C2CC2)CC1` [Example 2033] had an EC50 of 0.5 to 100 nM.

`O=C(NCC1(C(=O)N[C@]2(C(=O)NS(=O)(=O)C3CC3)C[C@H]2C2CC2)CC1)c1ccc(Nc2nc(NC3(c4ccc(Cl)cc4)CC3)nc(OCC(F)(F)F)n2)cc1` [Example 2066]: the EC50 is 0.5 to 100 nM. Same read-out and setting: to `CN(C)CC1(S(=O)(=O)NC(=O)c2ccc(Nc3nc(OCC(F)(F)F)nc(N4CCN(C(=O)c5ccccc5F)CC4)n3)cc2)CC1` [Example 8029] belongs 1000 to 5000 nM.

`CC(C)C(=O)NS(=O)(=O)CCNC(=O)c1ccc(Nc2nc(NC3(c4ccc(Cl)cc4)CC3)nc(OCC(F)(F)F)n2)cc1` [Example 4001] gave an EC50 of 0.5 to 100 nM.

`O=C(NS(=O)(=O)CCNCc1ccccc1)c1ccc(Nc2nc(NC3(c4ccc(Cl)cc4)CC3)nc(OCC(F)(F)F)n2)cc1` [Example 1034] yielded an EC50 of 0.5 to 100 nM. Same read-out and setting: the figure for `O=C(NCC1(CN2CCCC2)CC1)c1ccc(Nc2nc(NC3(c4ccc(C(=O)NS(=O)(=O)C5CC5)cc4)CC3)nc(OCC(F)(F)F)n2)cc1` [Example 7001, N-(cyclopropylsulfonyl)-4-(1-(4-(4-((1-(pyrrolidin-1-ylmethyl)cyclopropyl)methylcarbamoyl)phenylamino)-6-(2,2,2-trifluoroethoxy)-1,3,5-triazin-2-ylamino)cyclopropyl)benzamide] is 0.5 to 100 nM; for `CC(C)(C)NC(=O)NCCS(=O)(=O)NC(=O)c1ccc(Nc2nc(NC3(c4ccc(Cl)cc4)CC3)nc(OCC(F)(F)F)n2)cc1` [Example 1049] it is 0.5 to 100 nM; for `CC(C)(C)OC(=O)N1C[C@@H](NC(=O)c2ccc(Nc3nc(NC4(c5ccc(Cl)cc5)CC4)nc(OCC(F)(F)F)n3)cc2)C[C@@H]1C(=O)NS(=O)(=O)C1CC1` [Example 5000] it is 0.5 to 100 nM. The compound `O=C(NS(=O)(=O)C1(C(=O)Nc2ccccc2)CC1)c1ccc(Nc2nc(NC3(c4ccc(Cl)cc4)CC3)nc(OCC(F)(F)F)n2)cc1` [Example 8015] came in with an EC50 of 0.5 to 100 nM. Same read-out and setting: the figure for `CC(C)S(=O)(=O)NC(=O)C1(CNC(=O)c2ccc(Nc3nc(NC4(c5ccc(Cl)cc5)CC4)nc(OCC(F)(F)F)n3)cc2)CC1` [Example 2074] is 0.5 to 100 nM; for `O=C(CCCNC(=O)c1ccc(Nc2nc(NC3(c4ccc(Cl)cc4)CC3)nc(OCC(F)(F)F)n2)cc1)NCCC(=O)NS(=O)(=O)C1CCC1` [Example 2063] it is 0.5 to 100 nM; for `O=C(Nc1cccnc1)OCC1(S(=O)(=O)NC(=O)c2ccc(Nc3nc(NC4(c5ccc(Cl)cc5)CC4)nc(OCC(F)(F)F)n3)cc2)CC1` [Example 1028] it is 0.5 to 100 nM. Still for that read-out and setting: to `CC(=O)NS(=O)(=O)CCNC(=O)c1ccc(Nc2nc(NC3(c4ccc(Cl)cc4)CC3)nc(OCC(F)(F)F)n2)cc1` [Example 4000] belongs 0.5 to 100 nM; to `O=C(CCCNC(=O)c1ccc(Nc2nc(NC3(c4ccc(Cl)cc4)CC3)nc(OCC(F)(F)F)n2)cc1)NS(=O)(=O)C1CC1` [Example 2024], 0.5 to 100 nM; to `COc1ccc(C(=O)N2CCN(c3nc(Nc4ccc(C(=O)NS(=O)(=O)C5(CN(C)C)CC5)cc4)nc(OCC(F)(F)F)n3)CC2)cc1` [Example 8041], 1000 to 5000 nM. With `CC(C)S(=O)(=O)NC(=O)COc1ccc(C2(Nc3nc(Nc4ccc(C(=O)NCC5(CN6CCCC6)CC5)cc4)nc(OCC(F)(F)F)n3)CC2)cc1` [Example 6000, 4-(4-(1-(4-(2-(1-methylethylsulfonamido)-2-oxoethoxy)phenyl)cyclopropylamino)-6-(2,2,2-trifluoroethoxy)-1,3,5-triazin-2-ylamino)-N-((1-(pyrrolidin-1-ylmethyl)cyclopropyl)methyl)benzamide], the 50% effective concentration (EC50) is 0.5 to 100 nM. Still for that read-out and setting: the figure for `CN(C)CC1(S(=O)(=O)NC(=O)c2ccc(Nc3nc(OCC(F)(F)F)nc(N4CCN(S(C)(=O)=O)CC4)n3)cc2)CC1` [Example 8022] is 1000 to 5000 nM. On the same count and under the same terms, the figure for `C=CS(=O)(=O)NC(=O)CCNC(=O)c1ccc(Nc2nc(NC3(c4ccc(Cl)cc4)CC3)nc(OCC(F)(F)F)n2)cc1` [Example 2016] is 0.5 to 100 nM. The compound `C=C[C@@H]1C[C@]1(NC(=O)C(C)(C)CNC(=O)c1ccc(Nc2nc(NC3(c4ccc(Cl)cc4)CC3)nc(OCC(F)(F)F)n2)cc1)C(=O)NS(=O)(=O)C(C)(C)C` [Example 2082] returned an EC50 of 0.5 to 100 nM. For `C=CS(=O)(=O)NC(=O)CNC(=O)c1ccc(Nc2nc(NC3(c4ccc(Cl)cc4)CC3)nc(OCC(F)(F)F)n2)cc1` [Example 2010], the EC50 fell in the range of 0.5 to 100 nM.

For the compound `COCC1(S(=O)(=O)NC(=O)c2ccc(N(C)c3nc(OCC(F)(F)F)nc(N(C)C4(c5ccc(Cl)cc5)CC4)n3)cc2)CC1` [Example 8010], the EC50 is 1000 to 5000 nM. The same measure, in the same setting: to `O=C(CCCNC(=O)c1ccc(Nc2nc(NC3(c4ccc(Cl)cc4)CC3)nc(OCC(F)(F)F)n2)cc1)N[C@]1(C(=O)NS(=O)(=O)C2CC2)C[C@H]1C(F)F` [Example 2038] belongs 0.5 to 100 nM; to `CC(=O)NCCS(=O)(=O)NC(=O)c1ccc(Nc2nc(NC3(c4ccc(Cl)cc4)CC3)nc(OCC(F)(F)F)n2)cc1` [Example 1036], 0.5 to 100 nM; to `COCC1(S(=O)(=O)N(C)C(=O)c2ccc(N(C)c3nc(NC4(c5ccc(Cl)cc5)CC4)nc(OC)n3)cc2)CC1` [Example 8008], 1000 to 5000 nM. The compound `O=C(NCCS(=O)(=O)NC(=O)c1ccc(Nc2nc(NC3(c4ccc(Cl)cc4)CC3)nc(OCC(F)(F)F)n2)cc1)c1ccccc1` [Example 1037] came in with an EC50 of 0.5 to 100 nM. `CN(C)S(=O)(=O)NC(=O)c1ccc(Nc2nc(NC3(c4ccc(Cl)cc4)CC3)nc(OCC(F)(F)F)n2)cc1` [Example 1006]: the EC50 lay within 0.5 to 100 nM. `O=C(CCCCNC(=O)c1ccc(Nc2nc(NC3(c4ccc(Cl)cc4)CC3)nc(OCC(F)(F)F)n2)cc1)NS(=O)(=O)C1CC1` [Example 2012] yielded an EC50 of 0.5 to 100 nM. Still for that read-out and setting: to `Cc1ccccc1S(=O)(=O)N1CCN(c2nc(Nc3ccc(C(=O)NS(=O)(=O)C4(CN(C)C)CC4)cc3)nc(OCC(F)(F)F)n2)CC1` [Example 8034] belongs 1000 to 5000 nM; to `CN(C)S(=O)(=O)NC(=O)C1(CNC(=O)c2ccc(Nc3nc(NC4(c5ccc(Cl)cc5)CC4)nc(OCC(F)(F)F)n3)cc2)CC1` [Example 2078], 0.5 to 100 nM; to `CCC1(S(=O)(=O)NC(=O)C(C)(C)CNC(=O)c2ccc(Nc3nc(NC4(c5ccc(Cl)cc5)CC4)nc(OCC(F)(F)F)n3)cc2)CC1` [Example 2091], 0.5 to 100 nM. In turn, `CC(C)(C)OC(=O)N1CCC(C(=O)NS(=O)(=O)CCNC(=O)c2ccc(Nc3nc(NC4(c5ccc(Cl)cc5)CC4)nc(OCC(F)(F)F)n3)cc2)CC1` [Example 4005] had an EC50 of 0.5 to 100 nM. Same read-out and setting: the figure for `CCC1(S(=O)(=O)NC(=O)c2ccc(Nc3nc(NC4(c5ccc(Cl)cc5)CC4)nc(OCC(F)(F)F)n3)cc2)CC1` [Example 1008] is 0.5 to 100 nM; for `CN(C)S(=O)(=O)NC(=O)[C@@]1(NC(=O)CCCNC(=O)c2ccc(Nc3nc(NC4(c5ccc(Cl)cc5)CC4)nc(OCC(F)(F)F)n3)cc2)C[C@H]1C1CC1(F)F` (some centres unmarked) [Example 2049] it is 0.5 to 100 nM; for `CN(C)CC1(S(=O)(=O)NC(=O)c2ccc(Nc3nc(OCC(F)(F)F)nc(N4CCN(C(=O)OC(C)(C)C)CC4)n3)cc2)CC1` [Example 8028] it is 1000 to 5000 nM.

The compound `Cn1cnc(C[C@H](NC(=O)c2ccc(Nc3nc(NC4(c5ccc(Cl)cc5)CC4)nc(OCC(F)(F)F)n3)cc2)C(=O)NS(=O)(=O)C2CC2)c1` [Example 8018] registered an EC50 of 0.5 to 100 nM. In the case of `CC(C)S(=O)(=O)NC(=O)CCCNC(=O)c1ccc(Nc2nc(NC3(c4ccc(Cl)cc4)CC3)nc(OCC(F)(F)F)n2)cc1` [Example 2023], the EC50 lay within 0.5 to 100 nM.

As to `C[C@@H](NC(=O)CCCNC(=O)c1ccc(Nc2nc(NC3(c4ccc(Cl)cc4)CC3)nc(OCC(F)(F)F)n2)cc1)C(=O)NS(C)(=O)=O` [Example 2051, (R)-4-(4-(1-(4-chlorophenyl)cyclopropylamino)-6-(2,2,2-trifluoroethoxy)-1,3,5-triazin-2-ylamino)-N-(4-(1-(methylsulfonamido)-1-oxopropan-2-ylamino)-4-oxobutyl)benzamide], the EC50 lay within 0.5 to 100 nM. As for `O=C(NS(=O)(=O)C1(CN2CCC2)CC1)c1ccc(Nc2nc(NC3(c4ccc(Cl)cc4)CC3)nc(OCC(F)(F)F)n2)cc1` [Example 1013], the EC50 was in the range of 0.5 to 100 nM. Still for that read-out and setting: the figure for `O=C(NS(=O)(=O)c1ccc(F)cc1)c1ccc(Nc2nc(NC3(c4ccc(Cl)cc4)CC3)nc(OCC(F)(F)F)n2)cc1` [Example 8013] is 0.5 to 100 nM.

As to `CC(C)S(=O)(=O)NC(=O)[C@@H](C)NC(=O)CCCNC(=O)c1ccc(Nc2nc(NC3(c4ccc(Cl)cc4)CC3)nc(OCC(F)(F)F)n2)cc1` [Example 2052], the EC50 was 0.5 to 100 nM. Still for that read-out and setting: the figure for `O=C(NS(=O)(=O)CCNC(=O)C1CC1)c1ccc(Nc2nc(NC3(c4ccc(Cl)cc4)CC3)nc(OCC(F)(F)F)n2)cc1` [Example 1039] is 0.5 to 100 nM; for `CC(C)(C)OC(=O)N1CCC[C@H]1C(=O)NCCS(=O)(=O)NC(=O)c1ccc(Nc2nc(NC3(c4ccc(Cl)cc4)CC3)nc(OCC(F)(F)F)n2)cc1` [Example 1041] it is 0.5 to 100 nM. Same read-out and setting: to `C=CS(=O)(=O)NC(=O)[C@@]1(NC(=O)CCCNC(=O)c2ccc(Nc3nc(NC4(c5ccc(Cl)cc5)CC4)nc(OCC(F)(F)F)n3)cc2)C[C@H]1C1CC1` [Example 2040] belongs 0.5 to 100 nM; to `O=C(NS(=O)(=O)c1ccc(Nc2nc(NC3(c4ccc(Cl)cc4)CC3)nc(OCC(F)(F)F)n2)cc1)c1ccccc1` [Example 8005], 1000 to 5000 nM; to `CC(C)S(=O)(=O)NC(=O)[C@@]1(NC(=O)CCCNC(=O)c2ccc(Nc3nc(NC4(c5ccc(Cl)cc5)CC4)nc(OCC(F)(F)F)n3)cc2)C[C@H]1C1CC1` [Example 2041], 0.5 to 100 nM. The same measure, in the same setting: to `CN(C)CC1(S(=O)(=O)NC(=O)c2ccc(Nc3nc(OCC(F)(F)F)nc(N4CCN(S(=O)(=O)c5ccccc5F)CC4)n3)cc2)CC1` [Example 8030] belongs 1000 to 5000 nM.
